“And” between values parts separate entries of the source, which are not always exact repeats. Equal values may be shown once. Read-outs that look alike come from different tables or passages of the source. Each block holds one molecule with its values, some of them ahead of it. Non-standard residues stand in square brackets, D forms with d. Residues, ends and D or L forms follow the SMILES beside them. Tyr(3-I) = N[C@@H](Cc1ccc(O)c(I)c1)C(=O)O; pGlu = O=C1CC[C@@H](C(=O)O)N1; Nle = CCCC[C@H](N)C(=O)O
Legend:
[1] = molecular target: T1, NTR1 (Homo sapiens, UniProt P30989); experiment: ^125I-NT binding to PC3 cells; conditions: for maximal increase in NT binding to PC3 cells: as much as / up to, dose-response
[2] = molecular target: T1, NTR1; experiment: NT-induced IP formation in PC3 cells; type: cell-based; set-up: Ab-NTR1 detected two major bands in extracts of PC3 cells, the parent protein of 50 kDa; endogenous in cells; host or cells: PC3 cells (ATCC)
[3] = molecular target: T1, NTR1; experiment: ^125I-NT binding to isolated PC3 cell membranes; set-up: Ab-NTR1 detected two major bands in extracts of PC3 cells, the parent protein of 50 kDa; endogenous in cells; host or cells: PC3 cells (ATCC)
[4] = molecular target: T2, bombesin receptor (Homo sapiens, UniProt P30550); experiment: ^125I-[Nle^14]-bombesin binding to PC3 cells; conditions: for Specific Binding (% control) of ^125I-[Nle14]-bombesin: 37° C.
T2 construct: endogenous in cells; host or cells: PC3 cells (ATCC)

[5] = system: PC3 cells; experiment: Ionomycin-stimulated IP formation in PC3 cells; type: cell-based
[6] = general reducing agents and antioxidants
[7] = read-out: NT Binding EC50, [agent] giving 75% increase in NT binding
[8] = 6 μM enzyme inhibitor, PC3 cells
[9] = 20 μM enzyme inhibitor, PC3 cells
[10] = 60 μM enzyme inhibitor, PC3 cells
[11] = vitamin-like antioxidants at 20-180 μM, n=3

T2 sequence (P30550 whole entry): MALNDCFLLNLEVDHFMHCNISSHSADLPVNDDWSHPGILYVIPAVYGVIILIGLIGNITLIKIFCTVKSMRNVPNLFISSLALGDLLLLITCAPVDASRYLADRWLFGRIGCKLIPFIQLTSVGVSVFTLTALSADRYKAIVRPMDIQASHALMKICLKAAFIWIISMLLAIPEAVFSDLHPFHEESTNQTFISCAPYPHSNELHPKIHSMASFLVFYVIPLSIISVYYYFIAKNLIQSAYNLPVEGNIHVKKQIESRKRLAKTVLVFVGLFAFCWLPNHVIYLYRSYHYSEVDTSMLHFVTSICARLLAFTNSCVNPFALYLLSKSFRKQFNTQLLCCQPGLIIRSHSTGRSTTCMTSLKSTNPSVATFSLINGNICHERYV
T1 sequence (P30989 whole entry): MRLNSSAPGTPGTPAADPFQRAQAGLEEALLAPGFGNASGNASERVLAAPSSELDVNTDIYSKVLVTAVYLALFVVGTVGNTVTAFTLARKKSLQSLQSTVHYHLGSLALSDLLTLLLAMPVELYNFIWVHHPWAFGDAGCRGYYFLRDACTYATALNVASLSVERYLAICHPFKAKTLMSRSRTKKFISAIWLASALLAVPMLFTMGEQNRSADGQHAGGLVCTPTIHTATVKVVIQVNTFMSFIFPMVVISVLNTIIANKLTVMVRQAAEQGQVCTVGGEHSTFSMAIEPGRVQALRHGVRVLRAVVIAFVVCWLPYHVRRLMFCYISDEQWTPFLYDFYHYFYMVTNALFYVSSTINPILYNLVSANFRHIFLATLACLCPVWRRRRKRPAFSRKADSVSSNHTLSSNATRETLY

Molecule: O[C@H](CS)[C@H](O)CS (racemic) [DTT, dithiothreitol]
effect on NT binding [1, 6]: not much affected

Molecule: Oc1cc(O)c2c(c1)O[C@H](c1ccc(O)c(O)c1)[C@@H](O)C2 [(+)-catechin]
effect on NT binding ([1]; used at 10-100 μM, n=3): without effect

Molecule: CC(=O)OCOC(=O)CN(CC(=O)OCOC(C)=O)c1ccccc1OCCOc1ccccc1N(CC(=O)OCOC(C)=O)CC(=O)OCOC(C)=O [BAPTA-AM, 1,2-bis(o-aminophenoxy)ethane-N,N,N′,N′-tetraacetic acid tetra(acetoxymethyl) ester]
effect on NT binding ([1]; chelation of intracellular Ca^2+, 50 μM BAPTA-AM): nor was NT binding altered

Molecule: COc1ccc(O)c(C(C)(C)C)c1 [BHA, butylated hydroxy anisole]
EC50 [1, 7]: 110 µM

Molecule: O=C(/C=C/c1ccc(O)c(O)c1)OCCc1ccccc1 [CAPE, caffeic acid phenethyl ester]
IC50 [2]: 18 µM
EC50 [1]: 34 µM
maximal increase in NT binding to PC3 cells [1]: ≤ 2.8 fold

Molecule: N#CC(C#N)=NNc1cccc(Cl)c1 [CCCP, Carbonyl cyanide 3-chlorophenylhydrozone]
EC50 [1]: 23 µM

Molecule: c1ccc2c(c1)[I+]c1ccccc1-2 [Diphenylene iodonium]
IC50 ([2]; [agent] giving 50% decrease in IP formation, read-out: IP Formation IC50): 35 µM
EC50 [1]: 61 µM

Molecule: O=C(O)CN(CCOCCOCCN(CC(=O)O)CC(=O)O)CC(=O)O [EGTA, ethylene glycol tetra-acetic acid]
effect on NT-induced IP formation ([2]; Ca^2+-chelator added): inhibited
increase in NT binding [1]: 38±6 % increase

Molecule: Cc1cc2c(C(C)C)c(O)c(O)c(C=O)c2c(O)c1-c1c(C)cc2c(C(C)C)c(O)c(O)c(C=O)c2c1O [Gossypol, gossypol]
IC50 ([2]; [agent] that decreased IP formation by 40%, read-out: IP Formation IC50): 20 µM
NT Binding Efficacy % increase ([1]; LOX blockers): 170 % increase

Molecule: CCCCCC(O)c1cccc(OCc2ccc3ccccc3n2)c1 (stereo not drawn) [Rev5901]
Specific NT-Binding (% control) ([3]; 10 μM LOX pathway blocker): 101 ± 4 % control
Specific NT-Binding (% control) ([3]; 25 μM LOX pathway blocker): 113 ± 5 % control
Specific NT-Binding (% control) ([3]; 75 μM LOX pathway blocker): 110 ± 5 % control
Specific Binding (% control) of ^125I-[Nle14]-bombesin ([4]; 12 μM LOX blocker): 107 ± 3 % control
Specific Binding (% control) of ^125I-[Nle14]-bombesin ([4]; 60 μM LOX blocker): 119 ± 3 % control
NT Binding Efficacy % increase ([1]; LOX blockers): 160 % increase
maximal increase in NT binding to PC3 cells [1]: ≤ 2.4 fold

Molecule: C[S+]([O-])c1ccc(-c2nc(-c3ccncc3)c(-c3ccc(F)cc3)[nH]2)cc1 (stereo not drawn) [SB203580]
Specific NT-Binding (% control) [1, 8]: 108 ± 8 % control
Specific NT-Binding (% control) [1, 9]: 116 ± 7 % control
Specific NT-Binding (% control) [1, 10]: 125 ± 9 % control

Molecule: N#CC(=C(/N)Sc1ccccc1N)/C(C#N)=C(\N)Sc1ccccc1N [U0126]
Specific NT-Binding (% control) [1]: 118 ± 6 % control and 108 ± 6 % control and 120 ± 9 % control

Molecule: COc1ccc(CCN(C)CCCC(C#N)(c2ccc(OC)c(OC)c2)C(C)C)cc1OC (stereo not drawn) [Verapamil, verapamil]
Specific Binding (% control) of ^125I-[Nle^14]-bombesin ([4]; 12 μM agent): 104 ± 4 % control
Specific Binding (% control) of ^125I-[Nle^14]-bombesin ([4]; 60 μM agent): 104 ± 4 % control

Molecule: CCCC[C@H](NC(=O)[C@H](CC(C)C)NC(=O)[C@H](Cc1c[nH]cn1)NC(=O)CNC(=O)[C@@H](NC(=O)[C@H](C)NC(=O)[C@H](Cc1c[nH]c2ccccc12)NC(=O)[C@H](CCC(N)=O)NC(=O)[C@H](CC(N)=O)NC(=O)CNC(=O)[C@H](Cc1ccc(O)c(I)c1)NC(=O)[C@H](CCCNC(=N)N)NC(=O)[C@H](CCC(N)=O)NC(=O)[C@@H]1CCC(=O)N1)C(C)C)C(N)=O [^125I-[Nle^14]-bombesin] ([pGlu]QR[Tyr(3-I)]GNQWAVGHL[Nle]-NH2; C-terminus assumed)
Specific Binding (% of total) ([4]; 10^5 cpm ^125I-ligand): 95 % of total
Bmax ([4]; Scatchard analysis): 1016 ± 64 fmol/mg

Molecule: Fc1ccc(C(c2ccc(F)cc2)N2CCN(C/C=C/c3ccccc3)CC2)cc1 [flunarizine]
effect on NT binding ([1]; less specific CCBs): only modest effects

Molecule: C[C@H](CCC(=O)O)C[C@H](C)C[C@H](C)C(=O)/C=C(\O)[C@H](C)C[C@H](C)C/C=C/[C@@H](C)[C@@H](O)[C@@H](C)[C@@H](O)C[C@@H]1CC[C@@](C)([C@H]2CC[C@@](C)([C@@H](C)O)O2)O1 [ionomycin]
IP formation (% control) ([5]; 2 μM ionomycin): 139±6%
IP formation (% control) ([5]; 10 μM ionomycin): 157±5 % control
IP formation (% control) ([5]; 20 μM ionomycin): 324±14%
IP formation (% control) ([5]; 25 μM ionomycin): 322±11 % control
share of the NT response reproduced ([5]; IP formation): ~63%
reversal of NIF enhancement of NT binding ([1]; 20 μM ionomycin): not reversed

Molecule: Clc1ccc(COC(Cn2ccnc2)c2ccc(Cl)cc2Cl)c(Cl)c1 (stereo not drawn) [miconazole]
IP Formation Efficacy (% decrease) ([2]; maximal % decrease in NT-induced IP formation): 54 % decrease
NT Binding Efficacy % increase ([1]; maximal % increase in NT binding observed for each agent): 75 % increase

Molecule: C=C(C)[C@H]1Cc2c(ccc3c2O[C@@H]2COc4cc(OC)c(OC)cc4[C@@H]2C3=O)O1 [rotenone]
EC50 [1]: 38 µM

Molecule: [BH4-].[Na+] [sodium borohydride]
effect on NT binding [1, 6]: not much affected
effect on NT binding ([1]; used at 1-3 mM, n=3): without effect

Molecule: Cc1c(C)c2c(c(C)c1O)CC[C@@](C)(CCC[C@H](C)CCC[C@H](C)CCCC(C)C)O2 [α-tocoferol]
effect on NT binding [1, 11]: ineffective

Molecule: (−)-epigallocatechin gallate
effect on NT binding ([1]; used at 10-100 μM, n=3): without effect

The next lines start with the values.

EC50 [1, 7]: 16 µM
Molecule: COC(=O)C1=C(C)NC(C)=C([N+](=O)[O-])C1c1ccccc1C(F)(F)F (stereo not drawn) [BayK-8644]

maximal increase in NT binding to PC3 cells [1]: ≤ 1.4 fold
Molecule: COc1ccc([C@@H]2Sc3ccccc3N(CCN(C)C)C(=O)[C@@H]2OC(C)=O)cc1 [Diltiazem, diltiazem]

EC50 [1, 7]: 29 µM
Molecule: COC(=O)c1c(C)[nH]c(C)c1C(=O)c1ccccc1Cc1ccccc1 [FPL-64176]

NT Binding Efficacy % increase ([1]; LOX blockers): 157 % increase
EC50 ([1]; read-out: NT Binding EC50, [agent] giving 100% increase in NT binding): 34 µM
Molecule: CCCc1c(OCCCCc2nnn[nH]2)ccc(C(C)=O)c1O [LY171883]

effect on NT binding ([1]; used at 1-3 mM, n=3): without effect
Molecule: CC(=O)N[C@@H](CS)C(=O)O [N-acetyl cysteine]

Specific NT-Binding (% control) ([3]; 10 μM LOX pathway blocker): 110 ± 5 % control
Specific NT-Binding (% control) ([3]; 25 μM LOX pathway blocker): 121 ± 8 % control
Specific NT-Binding (% control) ([3]; 75 μM LOX pathway blocker): 132 ± 10 % control
Specific Binding (% control) of ^125I-[Nle14]-bombesin ([4]; 12 μM LOX blocker): 110 ± 3 % control
Specific Binding (% control) of ^125I-[Nle14]-bombesin ([4]; 60 μM LOX blocker): 127 ± 4 % control
Molecule: CC(Cc1ccc(O)c(O)c1)C(C)Cc1ccc(O)c(O)c1 (stereo not drawn) [NDGA, Nordihydroguaiaretic acid]

Specific NT-Binding (% control) ([3]; 10 μM LOX pathway blocker): 102 ± 3 % control
Specific NT-Binding (% control) ([3]; 25 μM LOX pathway blocker): 115 ± 4 % control
Specific NT-Binding (% control) ([3]; 75 μM LOX pathway blocker): 142 ± 8 % control
Molecule: CC1=C(/C=C/C(C)=C/C=C/C(C)=C/C(=O)O)C(C)(C)CCC1 [Retinoic Acid, retinoic acid]

Specific Binding (% control) of ^125I-[Nle^14]-bombesin ([4]; 12 μM agent): 99 ± 2 % control
Specific Binding (% control) of ^125I-[Nle^14]-bombesin ([4]; 60 μM agent): 106 ± 4 % control
Molecule: COc1ccc(CCCOC(Cn2ccnc2)c2ccc(OC)cc2)cc1 (stereo not drawn) [SKF-96365]

effect on NT binding [1, 6]: not much affected
effect on NT binding [1, 11]: ineffective
Molecule: O=C1O[C@H]([C@@H](O)CO)C(O)=C1O [ascorbic acid]

effect on NT binding ([1]; used at 10-100 μM, n=3): without effect
Molecule: O=c1oc2c(O)c(O)cc3c(=O)oc4c(O)c(O)cc1c4c23 [ellagic acid]

effect on NT binding ([1]; used at 1-3 mM, n=3): without effect
Molecule: N[C@@H](CCC(=O)N[C@@H](CS)C(=O)NCC(=O)O)C(=O)O [glutathione]

Specific NT-Binding (% control) [1, 8]: 109 ± 4 % control
Specific NT-Binding (% control) [1, 9]: 95 ± 6 % control
Specific NT-Binding (% control) [1, 10]: 113 ± 7 % control
Molecule: COc1ccc2c(c1)c(CC(=O)O)c(C)n2C(=O)c1ccc(Cl)cc1 [indomethacin]

effect on NT binding [1, 6]: not much affected
effect on NT binding [1, 11]: ineffective
Molecule: Cc1ncc(CO)c(CO)c1O [pyridoxine]

effect on NT-induced IP formation (figure legend) ([2]; FIG. 21B): inhibited NT-induced IP formation
effect on NT binding (figure legend) ([1]; FIG. 21A): enhanced NT-binding to NTR
Molecule: O=c1c(O)c(-c2ccc(O)c(O)c2)oc2cc(O)cc(O)c12 [quercetin]

effect on NT binding [1, 6]: not much affected
effect on NT binding [1, 11]: ineffective
Molecule: Cc1cc2nc3c(=O)[nH]c(=O)nc-3n(C[C@H](O)[C@H](O)[C@H](O)CO)c2cc1C [riboflavin]

effect on NT binding [1, 6]: not much affected
effect on NT binding [1, 11]: ineffective
Molecule: Cc1ncc(C[n+]2csc(CCO)c2C)c(N)n1 [thiamine]

effect on NT binding ([1]; less specific CCBs): only modest effects
Molecule: CN1CCN(CCCN2c3ccccc3Sc3ccc(C(F)(F)F)cc32)CC1 [trifluoperazine]

effect on NT binding [1, 6]: not much affected
effect on NT binding ([1]; used at 10-100 μM, n=3): without effect
Molecule: Cc1c(C)c2c(c(C)c1O)CCC(C)(C(=O)O)O2 (stereo not drawn) [trolox]

effect on NT binding [1, 11]: ineffective
Molecule: CC1=C(/C=C/C(C)=C/C=C/C(C)=C/C=C/C=C(C)/C=C/C=C(C)/C=C/C2=C(C)CCCC2(C)C)C(C)(C)CCC1 [β-carotene]

From patent US20060062729A1, “Enhanced ligand binding to neurotensin receptors” (priority 2004, published 2006)
